Results reported in patent US20240116926A1, “HETEROAROMATIC COMPOUNDS” (AstraZeneca AB, priority 2022, published 2024).
pIC50: −log10 of the molar value. Values after ≈ are worked out from the molar mass of the structure shown.

Tests used:
[1] = test system: MCF7-Luciferase cell line; experiment: Control reporter (MCF7-Luciferase); assay type: cell-based; details: MCF7-Luciferase cells, luciferase activity after 24 hours
Procedure: (iii) Control Reporter (MCF7-Luciferase)
MCF7-Luciferase cell line was obtained from […] (catalog number SC050-L) and was maintained in DMEM containing 10% fetal calf serum, 2 mM glutamine. Cells were grown in a humidified incubator at 37° C. with 5% CO2. Cells were distributed to flat bottom white polystyrene TC treated 384 well plates at a density of 3,500 cells/well in 30 μL. Cells were incubated for 24 hours at 37° C. with 5% CO2. Cells were acoustically dosed using an Echo 555, with compounds serially diluted in 100% DMSO. Plates were incubated for an additional 24 hours. Cells were examined for luciferase activity through the addition of 30 μL Bright-Glo luciferase (Promega catalog number E2620). Plates were incubated for 10 minutes at room temperature and luminescence was read using Tecan plate reader. The data obtained with each compound was exported to […] software to perform curve fitting analysis.

TEAD4(217-434) = TEAD4(217-434) (Homo sapiens (Human), UniProt Q15561); experiment: TEAD4 FRET; assay type: binding; details: depalmitoylated, biotinylated TEAD4(217-434), FAM labelled Probe A, 120 min at 25° C.
Procedure: Compounds were dosed with a final DMSO concentration of 1% (v/v). Compound IC50 values were assessed following a 10-point, half-log10 dilution schema starting at 100 μM compound concentration. Specifically, human TEAD protein from TEAD4(217-434) was cloned into an overexpression vector, expressed as an N-terminal HIS-TEV-Avi-tagged fusion protein in E coli, and subsequently purified, then protein was chemically depalmitoylated & biotinylated. The assay was performed in 384-well LV plates (384-well black, medium binding, PS, HIBASE, GREINER #784076) and run in the presence and absence of the compound of interest. Each well of 5 μL assay mixture contained 10 mM Tris-HCl (pH 7.5), 100 mM NaCl, 0.05 mM EDTA, 1 mM TECP, 1% DMSO, 0.03% Pluronic acid F127, 20 nM dePal Avi TEAD4 (217-434)-depalmitoylated & biotinylated protein, 0.8 nM Streptavidin Terbium cryptate (CisBio #610SATLB), 625 nM FAM labelled Probe A. Reactions were incubated at 25° C. for 120 min before reading on a PHERASTAR FSX Plate Reader (337 520 490 HTRF module required) (Supplier BMP).
The data file from the PHERAstar FSX contains both the acceptor (520 nm) and donor channels (490 nm) (“Channel A”=acceptor channel (520 nm), “Channel B”=donor channel (490 nm)). The ratio of the donor and acceptor (Channel A/Channel B) is calculated within Genedata Assay Analyzer.
Probe A is 3′,6′-dihydroxy-3-oxo-N-{8-[2-(5-{2-[4-(trifluoromethyl)anilino]phenyl}-2H-tetrazol-2-yl)acetamido]octyl}-3H-spiro[[2]benzofuran-1,9′-xanthene]-5-carboxamide;

[2] = Protein binding measurements in human plasma (Hu PPB); assay type: in vitro ADME; details: equilibrium dialysis for 18 hours, fraction unbound
Procedure: The automated equilibrium dialysis assay in human plasma uses the RED (Rapid Equilibrium Dialysis) Device and sample handling. The assay generally runs over two to three days including delivery of results. After dialysis for 18 hours, plasma and buffer samples are prepared for analysis by liquid chromatography and mass spectrometry. Samples are generally tested in singlicates and quantified by LC/MSMS by using a 7-point calibration curve in plasma. The compounds are pooled together in plasma pools up to 10 compounds. Three reference compounds are used in each run, Propranolol, Metoprolol and Warfarin. Warfarin is used as a control in each pool and Propranolol and Metoprolol are placed randomly in each run. An in-house Excel macro is used for preparation of files for the robot and the mass spectrometer and is also used for the calculations of fraction unbound (fu %) in plasma.

MCF7-Tead cell line = experiment: TEAD reporter assay; assay type: cell-based; details: MCF7-Tead cells, luciferase activity after 24 hours
Procedure: MCF7-Tead cell line was obtained from BPS BIOSCIENCE (catalog number 60618) and was maintained in DMEM containing 10% fetal calf serum, 2 mM glutamine, and 400 μg/ml G418. Cells were grown in a humidified incubator at 37° C. with 5% CO2. Cells were distributed to flat bottom white polystyrene TC treated 384 well plates at a density of 3,500 cells/well in 30 uL. Cells were incubated for 24 hours at 37° C. with 5% CO2. Cells were acoustically dosed using an Echo 555, with compounds serially diluted in 100% DMSO. Plates were incubated for an additional 24 hours. Cells were examined for luciferase activity through the addition of 30 μL Bright-Glo luciferase (Promega catalog number E2620). Plates were incubated for 10 minutes at room temperature and luminescence was read using Tecan plate reader. The data obtained with each compound was exported to […] software to perform curve fitting analysis.

[3] = Solubility (thermodynamic, shake-flask); assay type: physicochemical; details: thermodynamic from solid; aqueous phosphate buffer (pH 7.4), 24 hours at 25° C.
Procedure: The thermodynamic solubility of a research compound is measured under standard conditions. It is a shake-flask approach that uses 10 mM DMSO solutions which are supplied from the Compound Managements liquid store and is a high throughput method. The dried compounds are equilibrated in an aqueous phosphate buffer (pH 7.4) for 24 hours at 25° C., the portion with the dissolved compound is then separated from the remains. The solutions are analyzed and quantified using UPLC/MS/MS, QC-samples are incorporated in each assay-run to ensure the quality of the assay.

TEAD4(217-434), sequence (Q15561 217-434): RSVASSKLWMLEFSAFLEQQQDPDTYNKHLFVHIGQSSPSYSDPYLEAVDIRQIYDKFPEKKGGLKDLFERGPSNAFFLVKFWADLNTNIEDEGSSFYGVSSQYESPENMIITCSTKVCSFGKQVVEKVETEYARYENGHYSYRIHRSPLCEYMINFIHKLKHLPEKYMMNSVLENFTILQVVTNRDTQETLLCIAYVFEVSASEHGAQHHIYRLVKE

SMILES | pIC50 [1] | pIC50 (TEAD4(217-434)) | Hu PPB (% free) [2] [% free] | pIC50 (MCF7-Tead cell line) | solubility at 24 h [3] [µM]
C=CC(=O)N1CC[C@H](Nc2nnc(-c3ccc(C(F)(F)F)cc3)c3ncccc23)C1 [Example 7, (S)-1-(3-((8-(4-(trifluoromethyl)phenyl)pyrido[2,3-d]pyridazin-5-yl)amino)pyrrolidin-1-yl)prop-2-en-1-one] | 4.55 | 7.48 | 9.0 | 7.09 | 8.6 (≈ 3.56 µg/mL)
C=CC(=O)N1C[C@@H](CO)[C@H](Nc2nnc(-c3ccc(C(F)(F)F)cc3)c3cccnc23)C1 [Example 26, 1-((3R,4S)-3-(hydroxymethyl)-4-((5-(4-(trifluoromethyl)phenyl)pyrido[2,3-d]pyridazin-8-yl)amino)pyrrolidin-1-yl)prop-2-en-1-one] | < 4.50 | 7.12 | 26.0 | 7.38 | 175 (≈ 77.6 µg/mL)
C=CC(=O)N1CC[C@H](Nc2nnc(-c3ccc(C(F)(F)F)cn3)c3cccnc23)C1 [Example 16, (S)-1-(3-((5-(5-(trifluoromethyl)pyridin-2-yl)pyrido[2,3-d]pyridazin-8-yl)amino)pyrrolidin-1-yl)prop-2-en-1-one] | < 4.50 | 6.57 | 25.0 | 6.45 | 114 (≈ 47.2 µg/mL)
C=C(F)C(=O)N1C[C@H](F)[C@H](Nc2nnc(-c3ccc(C(F)(F)F)cc3)c3cccnc23)C1 [Example 6, 2-fluoro-1-((3S,4R)-3-fluoro-4-((5-(4-(trifluoromethyl)phenyl)pyrido[2,3-d]pyridazin-8-yl)amino)pyrrolidin-1-yl)prop-2-en-1-one] | 4.52 | 7.11 | 6.2 | 6.53 | 158 (≈ 71 µg/mL)
C=CC(=O)N1C[C@@H](CO)[C@H](Nc2ncc(-c3ccc(C(F)(F)F)cn3)c3ncccc23)C1 [Example 37, 1-((3R,4S)-3-(hydroxymethyl)-4-((8-(5-(trifluoromethyl)pyridin-2-yl)-1,6-naphthyridin-5-yl)amino)pyrrolidin-1-yl)prop-2-en-1-one] | < 4.50 | 6.74 | 17.0 | 7.48 | 155 (≈ 68.7 µg/mL)
C=CC(=O)N1C[C@@H](CO)[C@H](Nc2nnc(-c3ccc(C(F)(F)F)cc3)c3ncccc23)C1 [Example 25, 1-((3R,4S)-3-(hydroxymethyl)-4-((8-(4-(trifluoromethyl)phenyl)pyrido[2,3-d]pyridazin-5-yl)amino)pyrrolidin-1-yl)prop-2-en-1-one] | < 4.50 | 7.24 | 12.0 | 7.60 | 32 (≈ 14.2 µg/mL)
C=CC(=O)N1C[C@@H](CO)[C@H](Nc2nnc(-c3ccc(C(F)(F)F)cc3)c3cccc(F)c23)C1 [Example 15, 1-((3S,4R)-3-((8-fluoro-4-(4-(trifluoromethyl)phenyl)phthalazin-1-yl)amino)-4-(hydroxymethyl)pyrrolidin-1-yl)prop-2-en-1-one] | 4.51 | 7.60 | 11.0 | 7.82 | 135 (≈ 62.2 µg/mL)
C=CC(=O)N1CC[C@H](Nc2ncc(-c3ccc(C(F)(F)F)cc3)c3ncccc23)C1 [Example 39, (S)-1-(3-((8-(4-(trifluoromethyl)phenyl)-1,6-naphthyridin-5-yl)amino)pyrrolidin-1-yl)prop-2-en-1-one] | < 4.50 | 7.89 | 1.4 | 8.30 | 20 (≈ 8.25 µg/mL)

The remaining lines, values ahead:

pIC50 [1] | pIC50 (TEAD4(217-434)) | Hu PPB (% free) [2] [% free] | pIC50 (MCF7-Tead cell line) | solubility at 24 h [3] [µM] | SMILES
< 4.50 | 6.02 | 5.4 | 6.02 | 65 (≈ 28.8 µg/mL) | C=CC(=O)N1C[C@H](CO)[C@@H](Nc2nnc(-c3ccc(C(F)(F)F)cc3)c3ccccc23)C1 [Example 22, 1-((3S,4R)-3-(hydroxymethyl)-4-((4-(4-(trifluoromethyl)phenyl)phthalazin-1-yl)amino)pyrrolidin-1-yl)prop-2-en-1-one]
4.72 | 7.31 | 7.7 | 7.59 | 39 (≈ 17.4 µg/mL) | C=CC(=O)N1C[C@H](O)[C@H](Nc2nnc(-c3ccc(C(F)(F)F)cc3)c3cccc(F)c23)C1 [Example 14, 1-((3R,4S)-3-((8-fluoro-4-(4-(trifluoromethyl)phenyl)phthalazin-1-yl)amino)-4-hydroxypyrrolidin-1-yl)prop-2-en-1-one]
< 4.50 | 7.21 | 3.9 | 7.15 | 168 (≈ 76.7 µg/mL) | C=CC(=O)N1C[C@@H](COC)[C@H](Nc2nnc(-c3ccc(C(F)(F)F)cc3)c3ccccc23)C1 [Example 28, 1-((3R,4S)-3-(methoxymethyl)-4-((4-(4-(trifluoromethyl)phenyl)phthalazin-1-yl)amino)pyrrolidin-1-yl)prop-2-en-1-one]
4.79 | 7.59 | 5.9 | 7.59 | 2.4 (≈ 1.06 µg/mL) | C=CC(=O)N1C[C@@H](Nc2nnc(-c3ccc(C(F)(F)F)cc3)c3ccccc23)C[C@H]1CO [Example 48, 1-((2S,4S)-2-(hydroxymethyl)-4-((4-(4-(trifluoromethyl)phenyl)phthalazin-1-yl)amino)pyrrolidin-1-yl)prop-2-en-1-one]
4.67 | 7.14 | 0.9 | 6.82 | 72 (≈ 30.7 µg/mL) | C=CC(=O)NC1(CNc2nnc(-c3ccc(C(F)(F)F)cc3)c3ccccc23)CCC1 [Example 41, N-(1-(((4-(4-(trifluoromethyl)phenyl)phthalazin-1-yl)amino)methyl)cyclobutyl)acrylamide]
4.54 | 7.52 | 5.4 | 6.73 | < 1.6 | C=CC(=O)N1CCC[C@H](Nc2nnc(-c3ccc(C(F)(F)F)cc3)c3ccccc23)C1 [Example 50, (S)-1-(3-((4-(4-(trifluoromethyl)phenyl)phthalazin-1-yl)amino)piperidin-1-yl)prop-2-en-1-one]
< 4.50 | 7.17 | 17.0 | 6.97 | 365 (≈ 157 µg/mL) | C=CC(=O)N1C[C@H](O)[C@H](Nc2nnc(-c3ccc(C(F)(F)F)cc3)c3cccnc23)C1 [Example 33, 1-((3S,4R)-3-hydroxy-4-((5-(4-(trifluoromethyl)phenyl)pyrido[2,3-d]pyridazin-8-yl)amino)pyrrolidin-1-yl)prop-2-en-1-one]
